Common to all, as to test: DTP human tumour cell line panel, 48 h
For experiment [1], the system named is 786-0.
Experiment [2] relates to A549.
The test system of experiment [3] is ACHN.
Experiment [4] relates to HCT-116.
In experiment [5] the test system is HCT-15.
Experiment [6] concerns HOP-62.
The subject of experiment [7] is HOP-92.
Experiment [8] has as its system KM12.
For experiment [9], the system named is Malme-3M.
The test system of experiment [10] is NCI-H23.
Experiment [11] has as its system OVCAR-3.
The subject of experiment [12] is OVCAR-4.
Experiment [13] relates to OVCAR-8.
Experiment [14] concerns SK-MEL-28.
Experiment [15] has as its system SK-MEL-5.
For experiment [16], the system named is SK-OV-3.
Experiment [17] deals with SN12C.
Experiment [18] concerns UACC-257.
The test system of experiment [19] is UACC-62.
Experiment [20] concerns SNB-75.

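All cell lines were grown in 96-well plates and treated with compound for 48 hours. GI50: concentration for 50% inhibition of growth.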 The source made the active and inactive calls. Rule as the data show it: active = GI50 up to about 1.1 µM and inactive = higher.

One may read the GI50 as the concentration that inhibits growth by half.

`O=C(CCc1ccc(O)c(O)c1)OCCc1ccccc1`: the GI50 in [1] was 19.7 µM (inactive); in experiment [2], > 100 µM (inactive); in [3], 59.7 µM (inactive); in experiment [4], 44.6 µM (inactive); in [5], greater than 53 µM; in experiment [6], > 31.6 µM (inactive). The GI50 in experiment [7] is > 21.2 µM (inactive); in [8], > 100 µM (inactive); in experiment [9], > 88.9 µM (inactive); in [10] it was > 65.3 µM (inactive); in experiment [11], 29.6 µM (inactive); in experiment [12], 29.6 µM (inactive). For the same molecule, the GI50 in experiment [13] was 23.1 µM (inactive); in [14], > 100 µM (inactive); in experiment [15] it was 42.2 µM (inactive); in [16] it was > 100 µM (inactive); in [17], > 61.1 µM (inactive); in experiment [18], > 82.2 µM (inactive). In experiment [19], the GI50 is 45.4 µM (inactive).

Regarding `CSC1=Nc2ccccc2N(C)c2c1c(-c1ccccc1)nn2C`, the GI50 in experiment [2] is 50.4 µM (inactive); in experiment [3] it was 29.9 µM (inactive); in [4], 22.1 µM (inactive); in [5] it was 56.9 µM; in [7], 29.5 µM (inactive); in experiment [8], 21.8 µM (inactive). Besides, the GI50 in experiment [10] is 14.1 µM (inactive); in experiment [11] it was 15.2 µM (inactive); in experiment [12], 43.1 µM (inactive); in experiment [13] it was 32.7 µM (inactive); in experiment [14], > 100 µM (inactive); in experiment [15], 17.8 µM (inactive). The GI50 is 37.3 µM (inactive) in experiment [16]; 54.5 µM (inactive) in experiment [17]; > 100 µM (inactive) in [20]; 73.1 µM (inactive) in experiment [18]; 35.2 µM (inactive) in experiment [19].

As to `CCOP(=O)(OCC)C(Cc1c[nH]c2ccccc12)C(=O)O` (configuration not stated), the GI50 is > 100 µM (inactive) in [2]; > 100 µM (inactive) in experiment [3]; > 100 µM (inactive) in experiment [4]; greater than 100 µM in experiment [5]; > 100 µM (inactive) in experiment [6]; > 100 µM (inactive) in experiment [7]. In addition, the GI50 in experiment [10], in experiment [11], in [12], in [13], in [14] and in experiment [15] was > 100 µM (inactive) throughout. Besides, the GI50 in experiment [16], in experiment [17], in experiment [20] and in experiment [18] was > 100 µM (inactive) in each case.

In the case of `CCCCCCNC(=O)C1=C(C)NC(C)=C(C(=O)NCCCCCC)C1`, the GI50 is > 100 µM (inactive) in experiment [1]; > 100 µM (inactive) in [2]; > 100 µM (inactive) in experiment [3]; > 100 µM (inactive) in experiment [4]; greater than 100 µM in experiment [5]; > 100 µM (inactive) in experiment [6]. For the same molecule, the GI50 in [7] was 73.3 µM (inactive); in experiment [8], > 100 µM (inactive); in experiment [10] it was > 100 µM (inactive); in experiment [11], > 100 µM (inactive); in [12] it was > 100 µM (inactive); in experiment [13], > 100 µM (inactive). Further, the GI50 in experiment [14] is > 100 µM (inactive); in experiment [15] it was > 100 µM (inactive); in [16] it was > 100 µM (inactive); in experiment [17], > 100 µM (inactive); in [20], 51.9 µM (inactive); in experiment [18], > 100 µM (inactive). The GI50 in experiment [19] was > 100 µM (inactive).

As to `O=C(CC(=O)Nc1ccc(C(=O)O)cc1)Nc1ccc(C(=O)O)cc1`, the GI50 is > 100 µM (inactive) in [1]; > 100 µM (inactive) in experiment [2]; > 100 µM (inactive) in experiment [3]; > 100 µM (inactive) in [4]; greater than 10 µM in [5]; > 100 µM (inactive) in experiment [7]. Also, the GI50 in experiment [8], in experiment [9], in experiment [10], in [11], in [12] and in experiment [13] was > 100 µM (inactive) each time. Besides, the GI50 is > 100 µM (inactive) in experiment [14]; > 100 µM (inactive) in [15]; > 100 µM (inactive) in experiment [16]; > 100 µM (inactive) in experiment [17]; > 100 µM (inactive) in experiment [18]; 37.6 µM (inactive) in experiment [19].

For the molecule `CC(=O)c1cccc(NC(=O)C(=O)C(C(=O)c2ccccc2F)C2OC(=O)c3ccccc32)c1` (configuration not stated), the GI50 is 54.8 µM (inactive) in experiment [2]; 37.7 µM (inactive) in experiment [3]; 33.3 µM (inactive) in [4]; 30.2 µM in [5]; 61.7 µM (inactive) in experiment [6]; > 100 µM (inactive) in experiment [7]. Moreover, the GI50 was 39.7 µM (inactive) in experiment [8]; 33.8 µM (inactive) in [10]; 32.5 µM (inactive) in experiment [12]; 31.8 µM (inactive) in experiment [13]; 50.9 µM (inactive) in experiment [14]; 64 µM (inactive) in experiment [15]. The GI50 in experiment [16] is 35.4 µM (inactive); in experiment [17], 27.1 µM (inactive); in experiment [20], 25.8 µM (inactive); in experiment [18], 73.5 µM (inactive); in [19], 34.6 µM (inactive).

With `COc1ccc(-c2c3c([nH]c(=S)c2C#N)CC(C)(C)CC3=O)cc1`, the GI50 is > 100 µM (inactive) in [1]; > 100 µM (inactive) in [2]; > 100 µM (inactive) in [3]; > 100 µM (inactive) in experiment [4]; greater than 100 µM in experiment [5]; > 100 µM (inactive) in experiment [6]. The GI50 in experiment [7], in [8], in experiment [9], in experiment [10], in experiment [11] and in experiment [12] was > 100 µM (inactive) each time. In addition, the GI50 in [13], in experiment [14], in [15], in experiment [17], in experiment [18] and in experiment [19] was > 100 µM (inactive) each time.

On to `COc1cccc(-c2[nH]c3cc4c(cc3c(=O)c2C(=O)O)OCO4)c1`, for which the GI50 is 44.8 µM (inactive) in experiment [1]; 44.7 µM (inactive) in [2]; 86.7 µM (inactive) in experiment [3]; 32.8 µM (inactive) in experiment [4]; 28.4 µM in [5]; 62.8 µM (inactive) in experiment [6]. Besides, the GI50 in experiment [7] is 27.5 µM (inactive); in [8], 36.7 µM (inactive); in [10] it was 31.9 µM (inactive); in [11], 44.4 µM (inactive); in [12] it was 28.6 µM (inactive); in [13], 23.2 µM (inactive). In addition, the GI50 in experiment [14] is 37 µM (inactive); in [15], 31 µM (inactive); in experiment [17], 40.6 µM (inactive); in [20] it was 84.1 µM (inactive); in experiment [18], > 100 µM (inactive); in [19] it was 33.6 µM (inactive).

Turning to `CCOC(=O)c1nc2ccccc2n(CC)c1=O`, the GI50 in experiment [2] is > 100 µM (inactive); in [3] it was > 100 µM (inactive); in experiment [4], > 100 µM (inactive); in experiment [5], greater than 100 µM; in experiment [6], > 100 µM (inactive); in experiment [7], > 100 µM (inactive). In addition, the GI50 in experiment [8], in [9], in experiment [10], in experiment [11], in experiment [12] and in experiment [13] was > 100 µM (inactive) each time. Besides, the GI50 in experiment [14], in [15], in [16], in [17], in [18] and in experiment [19] was > 100 µM (inactive) in each case.

For `O=C1OC(c2ccc(O)cc2)(c2ccc(O)cc2)c2ccc(Cl)c3cccc1c23.O=C1OC(c2ccc(O)cc2)(c2ccc(O)cc2)c2cccc3c(Cl)ccc1c23`, the GI50 in experiment [2] is 18.8 µM (inactive); in [3], 13.9 µM (inactive); in experiment [4], 9.46 µM (inactive); in [5] it was 10.8 µM; in experiment [6], 3.94 µM (inactive); in [7] it was 24.2 µM (inactive). For the same molecule, the GI50 is 8.11 µM (inactive) in [8]; 9.55 µM (inactive) in experiment [9]; 11.1 µM (inactive) in experiment [10]; 11.5 µM (inactive) in experiment [11]; 0.0384 µM (active) in [12]; 14.4 µM (inactive) in experiment [13]. Besides, the GI50 in experiment [14] is 4.09 µM (inactive); in experiment [15] it was 12.7 µM (inactive); in [16] it was 19.2 µM (inactive); in experiment [17], 8.47 µM (inactive); in experiment [18] it was 22.2 µM (inactive); in experiment [19], 10.1 µM (inactive).

As to `Cc1ncc([N+](=O)[O-])n1CC[N+](C)([O-])CCCCn1ccnc1[N+](=O)[O-]` (configuration not stated), the GI50 in experiment [1] was > 100 µM (inactive); in experiment [2] it was > 100 µM (inactive); in experiment [3], > 100 µM (inactive); in experiment [4], > 100 µM (inactive); in [5] it was greater than 100 µM; in experiment [6], > 100 µM (inactive). In addition, the GI50 in [8], in [9], in experiment [10], in experiment [11], in experiment [12] and in [13] was > 100 µM (inactive) in each case. The GI50 in [14], in [15], in [16], in experiment [17], in experiment [20] and in experiment [18] was > 100 µM (inactive) in each case. Further, the GI50 in experiment [19] was > 100 µM (inactive).
